# Columns and labels:
# Assay in all cases: relative viability (nuclei count vs DMSO), 5 days (fraction); higher = more cells survive
# [1] = compound: CC1=CC=C(C=C1)C(=O)CN2C3=C(CCCC3)SC2=N [Pifithrin_alpha] + N=C(N)NC(=N)NCCc1ccccc1 [Phenformin] (partner 250 µM)
# In short: (§1)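 Dosing by pin tool came one day after lung cancer cell lines were seeded in 1536-well plates, using either one drug or a fixed anchor-drug dose plus five library-drug doses (not always all listed) in √10 steps. After 5 days, nuclei were counted on 4× images. Relative viability is treated-well nuclei count divided by vehicle-well nuclei count, and values are medians of duplicate plates.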
# [2] = compound: CNC(=O)c1ccccc1Sc1ccc2c(/C=C/c3ccccn3)n[nH]c2c1 [Axitinib] + C[C@@H](Oc1cc(-c2cnn(C3CCNCC3)c2)cnc1N)c1c(Cl)ccc(F)c1Cl [Crizotinib] (partner 1 µM)
# In short: as §1
# [3] = compound: CNC(=O)c1ccccc1Sc1ccc2c(/C=C/c3ccccn3)n[nH]c2c1 [Axitinib] + N=C(N)NC(=N)NCCc1ccccc1 [Phenformin] (partner 250 µM)
# In short: as §1
# [4] = compound: Nc1nc(Nc2ccc3c(c2)CC[C@@H](N2CCCC2)CC3)nn1-c1cc2c(nn1)-c1ccccc1CCC2 [Bemcentinib] + Cc1cc(Nc2cc(N3CCN(C)CC3)nc(Sc3ccc(NC(=O)C4CC4)cc3)n2)n[nH]1 [Tozasertib] (partner 0.1 µM)
# In short: as §1
Cell Line,relative viability ([1]; first compound 1 µM),relative viability ([1]; first compound 3.162 µM),relative viability ([1]; first compound 10 µM),relative viability ([1]; first compound 31.62 µM),relative viability ([1]; first compound 100 µM),relative viability ([2]; first compound 0.005 µM),relative viability ([2]; first compound 0.01581 µM),relative viability ([2]; first compound 0.05 µM),relative viability ([2]; first compound 0.1581 µM),relative viability ([2]; first compound 0.5 µM),relative viability ([3]; first compound 0.005 µM),relative viability ([3]; first compound 0.01581 µM),relative viability ([3]; first compound 0.05 µM),relative viability ([3]; first compound 0.1581 µM),relative viability ([3]; first compound 0.5 µM),relative viability ([4]; first compound 0.04 µM),relative viability ([4]; first compound 0.1265 µM),relative viability ([4]; first compound 0.4 µM),relative viability ([4]; first compound 1.265 µM),relative viability ([4]; first compound 4 µM)
LCLC-103H,0.336,0.313,0.373,0.355,0.375,1.11,1.13,1,1.1,1.06,0.32,0.341,0.345,0.356,0.312,0.442,0.484,0.539,0.478,0.474
NCI-H441,0.893,0.988,1.15,,0.994,0.69,0.797,0.654,0.794,0.853,0.929,0.803,0.882,0.76,0.834,0.733,0.847,0.781,0.649,0.611
LOU-NH91,0.514,0.647,0.689,0.665,0.627,0.765,0.641,0.773,0.697,0.78,0.763,0.523,0.875,0.684,0.695,0.651,0.639,0.635,0.709,0.63
NCI-H647,0.58,0.674,0.548,0.299,0.4,1.12,1.01,1.04,1.09,1.23,0.663,0.498,0.558,0.504,0.893,0.304,0.286,0.28,0.317,0.246
NCI-H1915,0.385,0.424,,,0.435,0.905,0.899,0.908,0.883,0.957,0.385,0.362,0.371,0.35,0.393,0.511,0.462,0.44,0.468,0.443
NCI-H1944,0.165,0.209,0.191,0.166,0.22,1.05,1.24,1.03,1.15,1.18,0.204,0.199,0.206,0.191,0.189,0.258,0.261,0.255,0.251,0.242
HARA,,0.441,0.409,,0.407,1.07,1.07,1.1,0.978,1.14,0.421,0.412,0.493,0.392,0.488,0.12,0.139,0.106,0.102,0.102
NCI-H2347,0.452,0.471,0.394,0.416,0.543,0.644,1.04,0.739,0.743,0.85,0.454,0.405,0.529,0.393,0.259,0.56,0.602,0.525,0.593,0.72

# — the supplement of paper PMC10307832
